Experimental data taken from patent publication US11629201B2, “PSMA-binding agents and uses thereof” (ITM Isotope Technologies Munich SE, priority 2017, dated 2023).

Columns and labels:
[1] = test system: PC-3 PIP/flu tumor-bearing mice; test: Biodistribution studies in PC-3 PIP/flu tumor-bearing mice; details: for Tumor-to-blood / Tumor-to-kidney / Tumor-to-liver: PC-3 PIP tumor
[2] = test system: PSMA-positive PC-3 PIP cells; test: Cell uptake and internalization in PSMA-positive PC-3 PIP cells; type: cell-based; details: 2 h and 4 h time-point, PC-3 PIP cells

## Cc1ccc(CCCC(=O)NC(CC(=O)NC(CC(=O)NC(CC(=O)NC(CCCCNC(=O)CN2CCN(CC(=O)O)CCN(CC(=O)O)CCN(CC(=O)O)CC2)C(=O)NCC2CCC(C(=O)NC(Cc3ccc4ccccc4c3)C(=O)NCCCCC(NC(=O)NC(CCC(=O)O)C(=O)O)C(=O)O)CC2)C(=O)O)C(=O)O)C(=O)O)cc1 (centres unmarked) [^177Lu-PSMA-ALB-08, metal not drawn]
[1]; 4 h p.i.
  Blood: 0.41 ± 0.18 % IA/g
  Bone: 0.16 ± 0.03 % IA/g
  Heart: 0.19 ± 0.07 % IA/g
  Intestines: 0.20 ± 0.09 % IA/g
  Kidneys: 27.2 ± 5.93 % IA/g
  Liver: 0.27 ± 0.10 % IA/g
  Lung: 0.48 ± 0.21 % IA/g
  Muscle: 0.06 ± 0.03 % IA/g
  PC-3 PIP Tumor: 46.9 ± 16.7 % IA/g
  PC-3 flu Tumor: 0.25 ± 0.19 % IA/g
  Salivary glands: 0.19 ± 0.06 % IA/g
  Spleen: 0.53 ± 0.10 % IA/g
  Stomach: 0.40 ± 0.25 % IA/g
  Tumor-to-blood: 116 ± 9.46
  Tumor-to-kidney: 1.70 ± 0.22
  Tumor-to-liver: 177 ± 2.72
[1]; 24 h p.i.
  Blood: 0.08 ± 0.01 % IA/g
  Bone: 0.07 ± 0.02 % IA/g
  Heart: 0.04 ± 0.01 % IA/g
  Intestines: 0.03 ± 0.01 % IA/g
  Kidneys: 13.9 ± 2.32 % IA/g
  Liver: 0.11 ± 0.02 % IA/g
  Lung: 0.09 ± 0.02 % IA/g
  Muscle: 0.02 ± 0.01 % IA/g
  PC-3 PIP Tumor: 33.0 ± 5.04 % IA/g
  PC-3 flu Tumor: 0.09 ± 0.05 % IA/g
  Salivary glands: 0.07 ± 0.05 % IA/g
  Spleen: 0.10 ± 0.03 % IA/g
  Stomach: 0.03 ± 0.01 % IA/g
  Tumor-to-blood: 421 ± 45.7
  Tumor-to-kidney: 2.39 ± 0.24
  Tumor-to-liver: 295 ± 40.1
[1]; 72 h p.i.
  Blood: 0.06 ± 0.02 % IA/g
  Bone: 0.09 ± 0.05 % IA/g
  Heart: 0.03 ± 0.01 % IA/g
  Intestines: 0.02 ± 0.01 % IA/g
  Kidneys: 7.98 ± 0.62 % IA/g
  Liver: 0.12 ± 0.01 % IA/g
  Lung: 1.28 ± 2.02 % IA/g
  Muscle: 0.01 ± 0.01 % IA/g
  PC-3 PIP Tumor: 24.1 ± 5.37 % IA/g
  PC-3 flu Tumor: 0.09 ± 0.07 % IA/g
  Salivary glands: 0.03 ± 0.02 % IA/g
  Spleen: 0.11 ± 0.05 % IA/g
  Stomach: 0.02 ± 0.01 % IA/g
  Tumor-to-blood: 416 ± 89.5
  Tumor-to-kidney: 3.02 ± 0.68
  Tumor-to-liver: 207 ± 47.1
[2]
  internalized fraction / internalization rate versus reference: still comparable to ^177Lu-PSMA-617

## O=C(O)CCC(NC(=O)NC(CCCCNC(=O)C(Cc1ccc2ccccc2c1)NC(=O)C1CCC(CNC(=O)C(CCCCNC(=O)CN2CCN(CC(=O)O)CCN(CC(=O)O)CCN(CC(=O)O)CC2)NC(=O)CCCCCCC(=O)NC(CCCCNC(=O)CCCc2ccc(I)cc2)C(=O)O)CC1)C(=O)O)C(=O)O (centres unmarked) [^177Lu-PSMA-ALB-04, metal not drawn]
[1]; 1 h p.i.
  Tumor-to-blood: 0.20 ± 0.02
  Tumor-to-kidney: 0.54 ± 0.09
  Tumor-to-liver: 0.33 ± 0.06
[1]; 24 h p.i.
  Blood: 55.3 ± 3.10 % IA/g
  Bone: 8.88 ± 0.19 % IA/g
  Heart: 22.1 ± 3.70 % IA/g
  Intestines: 8.13 ± 1.31 % IA/g
  Kidneys: 41.5 ± 1.44 % IA/g
  Liver: 17.6 ± 2.04 % IA/g
  Lung: 40.1 ± 7.77 % IA/g
  Muscle: 5.82 ± 1.62 % IA/g
  PC-3 PIP Tumor: 82.8 ± 6.84 % IA/g
  PC-3 flu Tumor: 14.0 ± 0.60 % IA/g
  Salivary glands: 12.5 ± 0.42 % IA/g
  Spleen: 13.6 ± 1.90 % IA/g
  Stomach: 6.18 ± 0.95 % IA/g
  Tumor-to-blood: 1.50 ± 0.11
  Tumor-to-kidney: 2.00 ± 0.11
  Tumor-to-liver: 4.76 ± 0.67
[1]; 48 h p.i.
  Blood: 38.2 ± 1.48 % IA/g
  Bone: 6.80 ± 0.67 % IA/g
  Heart: 13.6 ± 0.36 % IA/g
  Intestines: 7.27 ± 0.82 % IA/g
  Kidneys: 38.2 ± 4.10 % IA/g
  Liver: 13.1 ± 0.67 % IA/g
  Lung: 24.6 ± 2.02 % IA/g
  Muscle: 4.62 ± 0.38 % IA/g
  PC-3 PIP Tumor: 93.2 ± 12.4 % IA/g
  PC-3 flu Tumor: 12.6 ± 0.82 % IA/g
  Salivary glands: 10.6 ± 0.42 % IA/g
  Spleen: 14.0 ± 1.70 % IA/g
  Stomach: 5.04 ± 0.35 % IA/g
  Tumor-to-blood: 2.45 ± 0.41
  Tumor-to-kidney: 2.47 ± 0.50
  Tumor-to-liver: 7.16 ± 1.16
[1]; 96 h p.i.
  Blood: 11.65 ± 1.22 % IA/g
  Bone: 2.54 ± 0.31 % IA/g
  Heart: 4.81 ± 0.29 % IA/g
  Intestines: 2.36 ± 0.17 % IA/g
  Kidneys: 15.3 ± 1.49 % IA/g
  Liver: 4.67 ± 0.82 % IA/g
  Lung: 9.96 ± 1.44 % IA/g
  Muscle: 1.56 ± 0.56 % IA/g
  PC-3 PIP Tumor: 61.4 ± 7.68 % IA/g
  PC-3 flu Tumor: 5.63 ± 0.37 % IA/g
  Salivary glands: 4.08 ± 0.44 % IA/g
  Spleen: 6.76 ± 0.59 % IA/g
  Stomach: 1.74 ± 0.11 % IA/g
  Tumor-to-blood: 5.29 ± 0.74
  Tumor-to-kidney: 4.03 ± 0.56
  Tumor-to-liver: 13.4 ± 2.88
[1]; 192 h p.i.
  Blood: 3.75 ± 1.49 % IA/g
  Bone: 1.17 ± 0.61 % IA/g
  Heart: 1.73 ± 0.70 % IA/g
  Intestines: 0.67 ± 0.15 % IA/g
  Kidneys: 8.82 ± 3.83 % IA/g
  Liver: 2.45 ± 0.81 % IA/g
  Lung: 4.10 ± 1.77 % IA/g
  Muscle: 0.71 ± 0.54 % IA/g
  PC-3 PIP Tumor: 57.6 ± 17.3 % IA/g
  PC-3 flu Tumor: 3.31 ± 1.43 % IA/g
  Salivary glands: 1.96 ± 0.73 % IA/g
  Spleen: 5.22 ± 3.17 % IA/g
  Stomach: 0.56 ± 0.19 % IA/g
  Tumor-to-blood: 15.8 ± 3.55
  Tumor-to-kidney: 6.91 ± 2.24
  Tumor-to-liver: 23.9 ± 5.12
